This test deals with Human immunodeficiency virus type 1 protease (Human immunodeficiency virus 1, UniProt Q72874). The experiment in a line: Binding affinity against HIV-1 aspartic proteinase was determined.

Starred links: 1 amine or outer side, 2 acyl side, 3 side chain; linkers in the order of their positions; H or OH if unused. Non-standard residues stand in square brackets, D forms with d. Residues, ends and D or L forms follow the SMILES beside them. X1 = CC(C)C[C@H](N[*:1])[C@@H](O)C[C@H](C(=O)[*:2])C(C)C Some results are limits rather than exact numbers.

Broadly, the Ki is a measure of affinity in units of concentration, obtained from inhibition or displacement. High values mean lower affinity, low ones higher affinity.

For `CCCC[C@@H](CN[C@@H](CCCC)C(=O)N[C@@H](CCC(N)=O)C(=O)N[C@@H](CCCNC(=N)N)C(N)=O)NC(=O)[C@@H](NC(=O)[C@@H](NC(C)=O)[C@@H](C)O)[C@@H](C)CC`, the Ki is 780 nM.

As to `CC[C@H](C)[C@H](NC(=O)[C@@H](C[C@H](O)[C@H](CC(C)C)NC(=O)[C@H](CC(N)=O)NC(=O)[C@H](CCC(N)=O)NC(=O)[C@H](CO)NC(=O)[C@@H](N)C(C)C)C(C)C)C(=O)N[C@H](C(=O)O)C(C)C` (H-VSQN[X1]IV-OH), the Ki is below 1 nM.

The values above are taken from ChEMBL document CHEMBL1126747, “Multiple copy simultaneous search and construction of ligands in binding sites: application to inhibitors of HIV-1 aspartic proteinase” (J Med Chem, 1993).
